In patent publication US20180265463A1, “Vitamin D3 Derivatives and Pharmaceutical Use Thereof” (Kyoto University, priority 2014, published 2018):
Values joined by “and” are separate entries in the source; they are usually repeats but may differ in a detail not shown here. Equal entries are not always repeated. “Also recorded” adds a separate entry of the source.

Key:
Type in all cases: cell-based, Chinese hamster
[1] = test system: SREBP-2 fragment fused to PLAP (PLAP-BP2513-1141); assay: PLAP-BP assay (secreted alkaline phosphatase reporter of SREBP translocation and processing); conditions: VD derivatives 10 μM, 20 h, CHO-K1 co-transfected with PLAP-BP2 and SCAP; average of two experiments
SREBP = assay: SRE-driven luciferase reporter assay of SREBP activation; conditions: luciferase reporter in CHO-K1 cells, lipid-depleted medium, 20-24 h, normalized to β-galactosidase; averages of three independent experiments; read-out: IC50 (μM), inhibitory effect on the activation of SREBP
Procedure: The transfected cells were treated with DMSO alone, sterols (10 μg/mL cholesterol and 1.0 μg/mL 25-HC), or varied concentrations of 25(OH)D in a medium containing lipid-free serum. Luciferase activity was measured after 20 h incubation, and the data were normalized to β-galactosidase activity. Values are the mean±SD of three independent experiments.
The molecules in a chemical library which consists of 280 endogenous lipid related molecules were screened for their ability to inhibit the expression of a luciferase reporter gene. In this gene, three repeats of sterol regulatory elements (SREs) control expression of luciferase. Lipid depletion activates SREBPs, which bind to the SRE domain and work as transcription factors to express luciferase. The SREBP-responsive reporter construct was co-transfected into Chinese hamster ovary K1 (CHO-K1) cells, along with a control β-galactosidase (β-gal) reporter gene. A constitutively active actin promoter in the reporter gene drives the expression of β-gal. The levels of luciferase expression from the SREBP-responsive reporter gene were normalized to the levels of β-gal expression.
CHO-K1 cells were maintained in a medium A (1:1 mixture of Ham's F-12 medium and Dulbecco's modified Eagle medium, supplemented with 100 units/mL penicillin, 100 μg/mL streptomycin sulfate, and 5% (v/v) fetal bovine serum) at 37° C. under humidified 5% CO2.
On day 0, CHO-K1 cells were added to 96-well plates at 1.0×10^4 cells per well in medium A. On day 1, the cells were co-transfected with an SRE-1-driven luciferase reporter construct (pSRE-Luc) and pAc-β-gal at a 20/1 ratio, using FuGENE(Registered trademark) HD transfection reagent (Promega), according to the manufacturer's protocol. After 8-12 h of incubation, the cells were washed with PBS buffer, then incubated in medium B containing the specific test compounds. […] After 20-24 h of incubation, the cells in each well were lysed by freeze-thaw with Reporter Lysis Buffer (Promega), and aliquots were used to measure luciferase and β-galactosidase activities. Luciferase activity was measured using the Steady-Glo(Registered trademark) Luciferase Assay System (Promega), and β-galactosidase activity was measured using the β-galactosidase Enzyme Assay System (Promega). Luciferase activity was normalized to β-galactosidase activity.

SREBP-2 = assay: Western-blot analysis of SREBP-2 in CHO-K1 cells; conditions: 5 μM, 18 h, CHO-K1 cells (FIG. 3)
Procedure: CHO-K1 cells were treated with DMSO alone or each molecule (5 μM) for 18 h. The levels of precursor and mature forms of SREBP-2 were analyzed by Western-blot. Western-blots of actin are shown in lower panel as a loading control.
CHO-K1 cells were treated with DMSO alone or each molecule (5 μM) for 16 h. The levels of precursor and mature forms of SREBP-2 were analyzed by Western-blot. Western-blots of actin are shown in lower panel as a loading control.
(§1) On day 0, CHO-K1 cells were added to 6-well plates at 3.0×10^5 cells per well in medium A. On day 1, the cells were washed with PBS, and then incubated in medium B in the absence or presence of specific test compounds (5 μM). After 16 h of incubation, the cells were washed three times with cold PBS, and lysed with a buffer A (50 mM Tris-HCl (pH 7.5), 150 mM NaCl, 1% (v/v) Nonidet P40, 0.5% (w/v) sodium deoxycholate, 8 M urea, and protease inhibitor cocktail (Nacalai)). The cell lysate were passed 16 times through a 25 G needle and centrifuged at 7,000 g at 4° C. for 10 min. The supernatants were transferred to new tubes, and the pellets were extracted with a buffer A. The resulting buffer was centrifuged at 7,000 g at 4° C. for 10 min, and the supernatants were combined to the previous ones. The resulting lysate was mixed with 0.20 volume of 6×SDS sample buffer (Nacalai) and incubated at room temperature for 30 min. The samples were separated on a 10% SDS-PAGE gel and blotted, using mouse monoclonal antibodies against SREBP-2 (IgG-7D4), SCAP (IgG-9D5), c-Myc (IgG1-MC045), and actin (AC-40). The specific bands were visualized using enhanced chemiluminescence (ECL Prime Western Blotting Detection Reagent, GE Healthcare) on an ImageQuant LAS 500 (GE Healthcare).

SCAP [2] = target: T1, SCAP (Cricetulus griseus, UniProt P97260); assay: Western-blot analysis of SCAP levels and ubiquitination in CHO-K1 cells; conditions: 5 μM, CHO-K1 cells, different times (FIG. 4)
T1 construct: endogenous in cells; host or cells: CHO-K1
T1 sequence (P97260 1-1276): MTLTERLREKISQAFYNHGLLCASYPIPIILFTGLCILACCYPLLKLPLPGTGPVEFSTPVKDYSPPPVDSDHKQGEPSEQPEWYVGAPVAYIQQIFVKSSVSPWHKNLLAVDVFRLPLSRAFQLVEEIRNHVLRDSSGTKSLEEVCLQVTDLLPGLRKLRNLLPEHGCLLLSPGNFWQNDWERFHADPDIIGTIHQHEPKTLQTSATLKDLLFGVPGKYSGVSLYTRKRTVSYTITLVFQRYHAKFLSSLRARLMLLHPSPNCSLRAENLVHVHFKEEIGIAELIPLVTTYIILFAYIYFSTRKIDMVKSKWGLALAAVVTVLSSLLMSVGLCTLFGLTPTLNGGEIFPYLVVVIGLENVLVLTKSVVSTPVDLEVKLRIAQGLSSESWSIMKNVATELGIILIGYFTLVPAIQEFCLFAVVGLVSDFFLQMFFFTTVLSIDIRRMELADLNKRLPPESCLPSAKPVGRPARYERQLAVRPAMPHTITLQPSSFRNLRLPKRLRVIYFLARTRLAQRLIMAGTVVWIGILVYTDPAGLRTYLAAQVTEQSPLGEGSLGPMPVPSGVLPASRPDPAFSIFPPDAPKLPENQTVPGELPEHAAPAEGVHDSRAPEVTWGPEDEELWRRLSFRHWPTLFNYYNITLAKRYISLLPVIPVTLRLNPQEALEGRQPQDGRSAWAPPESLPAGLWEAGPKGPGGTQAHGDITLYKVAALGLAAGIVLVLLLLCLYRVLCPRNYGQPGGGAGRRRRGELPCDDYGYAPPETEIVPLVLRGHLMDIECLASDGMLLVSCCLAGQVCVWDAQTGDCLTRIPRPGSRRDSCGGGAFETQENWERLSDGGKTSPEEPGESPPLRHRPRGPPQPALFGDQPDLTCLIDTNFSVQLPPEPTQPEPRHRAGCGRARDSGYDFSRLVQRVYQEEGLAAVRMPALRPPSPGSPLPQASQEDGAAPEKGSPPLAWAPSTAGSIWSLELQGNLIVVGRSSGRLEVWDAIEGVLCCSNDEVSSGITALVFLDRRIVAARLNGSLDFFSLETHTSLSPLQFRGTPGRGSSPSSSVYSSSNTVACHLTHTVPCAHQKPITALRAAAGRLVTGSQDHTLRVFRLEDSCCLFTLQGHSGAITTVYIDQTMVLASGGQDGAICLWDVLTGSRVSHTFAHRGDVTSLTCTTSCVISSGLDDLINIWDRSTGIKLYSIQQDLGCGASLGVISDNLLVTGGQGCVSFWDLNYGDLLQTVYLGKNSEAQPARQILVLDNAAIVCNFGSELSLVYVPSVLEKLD
Procedure: (§2) After incubation for the indicated time, the levels of SCAP and precursor and mature forms of SREBP-2 were analyzed by Western-blot. Western-blots of actin are shown in lower panel as a loading control.
(§3) CHO-K1 cells were treated with DMSO alone or 25(OH)D (5 μM) in the presence or absence of MG-132 (10 μM) for 5 h. The levels of Myc-SCAP were analyzed by Western-blot. Western-blots of actin are shown in lower panel as a loading control.
(§4) CHO-K1 cells were treated with DMSO alone (−) or 25(OH)D (5 μM, +). After 2 h incubation, each dish received MG-132 (10 μM). Following incubation for 2 h, cells were harvested and subjected to immunoprecipitation with monoclonal anti-c-Myc-conjugated agarose beads. The ubiquitination of SCAP was analyzed by Western-blot.
as §1

SCAP [3] = assay: as above
Procedure: as §2, §3, §4, §1

## C=C1CC[C@H](O)C/C1=C/C=C1\CCC[C@]2(C)[C@@H]([C@H](C)CCCC(C)(C)O)CC[C@@H]12 [25(OH)D, 25-hydroxyvitamin D3]
[1]
  secretion of PLAP: inhibited the secretion of PLAP to a greater extent than sterol; also recorded: caused a greater decrease in PLAP secretion than did cholesterol
SREBP
  IC50: 1 µM and 1.09 µM
SREBP-2
  level of mature form of SREBP: decreased
  level of precursor form of SREBP: decreased
SCAP [2]
  levels of SCAP: reduced
SCAP [3]; 5 μM, 2 h then MG-132 10 μM for 2 h, immunoprecipitation (FIG. 6)
  ubiquitination of SCAP: accelerated
SCAP [3]; 25(OH)D 5 μM with MG-132 10 μM, 5 h (FIG. 5)
  decrease in the levels of SCAP (Myc-SCAP) on addition of MG-132: cancelled
